Results: PubChem BioAssay AID1963836 (Molecular Pharmacology Branch, DTP, NCI, 2024)

Tested on: 857933-349-R-J2-PDC complex spheroid viability
Assay: Anticancer human tumor 857933-349-R-J2-PDC patient-derived colon adenocarcinoma cell line growth inhibition [POLQ]
Settings: for IC50: curve of first compound; for viability, T/C: stronger effect = lower value
In short: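 PDC + HUVEC + MSC complex spheroids; POLQ inhibitors ± partner drugs; top conc. at/near clinical Cmax, else 10 microM (SN-38 1 microM), half-log dilutions; 37 degrees C, 5% CO2.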

[1] = second compound 0.0316 µM, first compound 0.00316 µM
[2] = second compound 0.0316 µM, first compound 0.01 µM
[3] = second compound 0.0316 µM, first compound 0.0316 µM
[4] = second compound 0.0316 µM, first compound 0.1 µM
[5] = second compound 0.1 µM, first compound 0.00316 µM
[6] = second compound 0.1 µM, first compound 0.01 µM
[7] = second compound 0.1 µM, first compound 0.0316 µM
[8] = second compound 0.1 µM, first compound 0.1 µM
[9] = second compound 0.316 µM, first compound 0.00316 µM
[10] = second compound 0.316 µM, first compound 0.01 µM
[11] = second compound 0.316 µM, first compound 0.0316 µM
[12] = second compound 0.316 µM, first compound 0.1 µM
[13] = second compound 1 µM, first compound 0.00316 µM
[14] = second compound 1 µM, first compound 0.01 µM
[15] = second compound 1 µM, first compound 0.0316 µM
[16] = second compound 1 µM, first compound 0.1 µM
[17] = second compound 3.16 µM, first compound 0.00316 µM
[18] = second compound 3.16 µM, first compound 0.01 µM
[19] = second compound 3.16 µM, first compound 0.0316 µM
[20] = second compound 3.16 µM, first compound 0.1 µM
[21] = second compound 10 µM, first compound 0.00316 µM
[22] = second compound 10 µM, first compound 0.01 µM
[23] = second compound 10 µM, first compound 0.0316 µM
[24] = second compound 10 µM, first compound 0.1 µM
[25] = second compound 0.0316 µM, first compound 0.316 µM
[26] = second compound 0.0316 µM, first compound 1 µM
[27] = second compound 0.1 µM, first compound 0.316 µM
[28] = second compound 0.1 µM, first compound 1 µM
[29] = second compound 0.316 µM, first compound 0.316 µM
[30] = second compound 0.316 µM, first compound 1 µM
[31] = second compound 1 µM, first compound 0.316 µM
[32] = second compound 1 µM, first compound 1 µM
[33] = second compound 3.16 µM, first compound 0.316 µM
[34] = second compound 3.16 µM, first compound 1 µM
[35] = second compound 10 µM, first compound 0.316 µM
[36] = second compound 10 µM, first compound 1 µM
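Further: spheroids exposed to compounds for seven days before readout.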

With `CC[C@@]1(O)C(=O)OCc2c1cc1n(c2=O)Cc2cc3c(CN(C)C)c(O)ccc3nc2-1` + Nc1ccc(C#CCN(C(=O)Cc2ncc(C(F)(F)F)cc2C(F)(F)F)c2ccc(F)cc2)nn1 the IC50 (second compound 0.0316 µM) was 71.7 nM, the IC50 (second compound 0.1 µM) was > 100 nM and the IC50 (second compound 0.316 µM) was 77.3 nM. The IC50 (second compound 1 µM) was 86.9 nM, the IC50 (second compound 3.16 µM) was 63.8 nM and the IC50 (second compound 10 µM) was 51.9 nM. The viability, T/C (second compound 0.0316 µM, first compound 0.000316 µM) was 89.2%, the viability, T/C (second compound 0.0316 µM, first compound 0.001 µM) was 103% and the viability, T/C [1] was 88.6%. The viability, T/C [2] was 70.7%, the viability, T/C [3] was 66.2% and the viability, T/C [4] was 44%. For the same compound, the viability, T/C (second compound 0.1 µM, first compound 0.000316 µM) was 98.9%, the viability, T/C (second compound 0.1 µM, first compound 0.001 µM) was 95.7% and the viability, T/C [5] was 94.8%. It also gave a viability, T/C [6] of 82.3%, a viability, T/C [7] of 71% and a viability, T/C [8] of 50.6%. For the same compound, the viability, T/C (second compound 0.316 µM, first compound 0.000316 µM) was 107%, the viability, T/C (second compound 0.316 µM, first compound 0.001 µM) was 121% and the viability, T/C [9] was 87.5%. The viability, T/C [10] was 87%, the viability, T/C [11] was 73.3% and the viability, T/C [12] was 43%. The viability, T/C (second compound 1 µM, first compound 0.000316 µM) was 99.5%, the viability, T/C (second compound 1 µM, first compound 0.001 µM) was 100% and the viability, T/C [13] was 97.2%. It also gave a viability, T/C [14] of 94.4%, a viability, T/C [15] of 74% and a viability, T/C [16] of 46.7%. It also gave a viability, T/C (second compound 3.16 µM, first compound 0.000316 µM) of 92.6%, a viability, T/C (second compound 3.16 µM, first compound 0.001 µM) of 96% and a viability, T/C [17] of 92.1%. For the same compound, the viability, T/C [18] was 76.6%, the viability, T/C [19] was 61.8% and the viability, T/C [20] was 42.9%. For the same compound, the viability, T/C (second compound 10 µM, first compound 0.000316 µM) was 75.2%, the viability, T/C (second compound 10 µM, first compound 0.001 µM) was 86.1% and the viability, T/C [21] was 92.5%. The viability, T/C [22] was 76.6%, the viability, T/C [23] was 61.3% and the viability, T/C [24] was 35.6%.

Compound `CCc1c2c(nc3ccc(O)cc13)-c1cc3c(c(=O)n1C2)COC(=O)[C@]3(O)CC` + Nc1ccc(C#CCN(C(=O)Cc2ncc(C(F)(F)F)cc2C(F)(F)F)c2ccc(F)cc2)nn1 has an IC50 (second compound 0.0316 µM) of 14.9 nM, an IC50 (second compound 0.1 µM) of 13.6 nM and an IC50 (second compound 0.316 µM) of 10.9 nM. For the same compound, the IC50 (second compound 1 µM) was 12.7 nM, the IC50 (second compound 3.16 µM) was 13.2 nM and the IC50 (second compound 10 µM) was 12.7 nM. For the same compound, the viability, T/C [1] was 65.4%, the viability, T/C [2] was 63.6% and the viability, T/C [3] was 27.2%. The viability, T/C [4] was 18.6%, the viability, T/C [25] was 10.8% and the viability, T/C [26] was 2.67%. For the same compound, the viability, T/C [5] was 64.9%, the viability, T/C [6] was 60.5% and the viability, T/C [7] was 23.2%. The viability, T/C [8] was 14.3%, the viability, T/C [27] was 9.81% and the viability, T/C [28] was 2.89%. The viability, T/C [9] was 68%, the viability, T/C [10] was 53.6% and the viability, T/C [11] was 21.7%. It also gave a viability, T/C [12] of 14.7%, a viability, T/C [29] of 9.84% and a viability, T/C [30] of 1.82%. It also gave a viability, T/C [13] of 68.1%, a viability, T/C [14] of 58.1% and a viability, T/C [15] of 24.9%. For the same compound, the viability, T/C [16] was 15.6%, the viability, T/C [31] was 8.49% and the viability, T/C [32] was 2.23%. It also gave a viability, T/C [17] of 66.2%, a viability, T/C [18] of 58.9% and a viability, T/C [19] of 27.4%. It also gave a viability, T/C [20] of 17.6%, a viability, T/C [33] of 12.5% and a viability, T/C [34] of 3.21%. The viability, T/C [21] was 70.2%, the viability, T/C [22] was 57.9% and the viability, T/C [23] was 25.9%. The viability, T/C [24] was 20.9%, the viability, T/C [35] was 12.7% and the viability, T/C [36] was 5.79%.

In the case of `CNCc1ccc(-c2[nH]c3cc(F)cc4c3c2CCNC4=O)cc1` + Nc1ccc(C#CCN(C(=O)Cc2ncc(C(F)(F)F)cc2C(F)(F)F)c2ccc(F)cc2)nn1, the IC50 (second compound 0.0316 µM) is reported as > 10000 nM, the IC50 (second compound 0.1 µM) is reported as > 10000 nM and the IC50 (second compound 0.316 µM) is reported as > 10000 nM. The IC50 (second compound 1 µM) was > 10000 nM, the IC50 (second compound 3.16 µM) was > 10000 nM and the IC50 (second compound 10 µM) was > 10000 nM. The viability, T/C [3] was 91.7%, the viability, T/C [4] was 101% and the viability, T/C [25] was 92%. For the same compound, the viability, T/C [26] was 97.1%, the viability, T/C (second compound 0.0316 µM, first compound 3.16 µM) was 101% and the viability, T/C (second compound 0.0316 µM, first compound 10 µM) was 98.2%. The viability, T/C [7] was 94.5%, the viability, T/C [8] was 78.7% and the viability, T/C [27] was 85.6%. It also gave a viability, T/C [28] of 110%, a viability, T/C (second compound 0.1 µM, first compound 3.16 µM) of 103% and a viability, T/C (second compound 0.1 µM, first compound 10 µM) of 93.7%. The viability, T/C [11] was 103%, the viability, T/C [12] was 102% and the viability, T/C [29] was 95.3%. The viability, T/C [30] was 94.9%, the viability, T/C (second compound 0.316 µM, first compound 3.16 µM) was 107% and the viability, T/C (second compound 0.316 µM, first compound 10 µM) was 90.6%. It also gave a viability, T/C [15] of 93.4%, a viability, T/C [16] of 101% and a viability, T/C [31] of 98.9%. It also gave a viability, T/C [32] of 107%, a viability, T/C (second compound 1 µM, first compound 3.16 µM) of 94.3% and a viability, T/C (second compound 1 µM, first compound 10 µM) of 98.2%. The viability, T/C [19] was 96.3%, the viability, T/C [20] was 84.9% and the viability, T/C [33] was 92.1%. For the same compound, the viability, T/C [34] was 104%, the viability, T/C (second compound 3.16 µM, first compound 3.16 µM) was 97.7% and the viability, T/C (second compound 3.16 µM, first compound 10 µM) was 101%. It also gave a viability, T/C [23] of 91.6%, a viability, T/C [24] of 99% and a viability, T/C [35] of 91.2%. For the same compound, the viability, T/C [36] was 93%, the viability, T/C (second compound 10 µM, first compound 3.16 µM) was 100% and the viability, T/C (second compound 10 µM, first compound 10 µM) was 92%.
